Measurements reported in patent US8680047B2, “Fas peptide mimetics and uses thereof” (The Trustees of the University of Pennsylvania, priority 2002, dated 2014).
Positions of bridges follow the written chain, without caps; N, C: chain ends. Residues, ends and D or L forms follow the SMILES beside them. No end group written: not given here.

Key:
[1] = tested on: FasL-sensitive Jurkat cells; experiment: FasL-induced cytotoxicity assay in Jurkat cells ([3H]-thymidine incorporation); format: cell-based, human; details: for inhibition of Fas-mediated cytotoxicity: Jurkat cells stimulated with soluble FasL-Flag, various concentrations of mimetic
Experimental: To evaluate the effect of mimetics on Fas-mediated cytotoxicity, FasL-sensitive Jurkat cells were stimulated with soluble FasL-Flag fusion protein in the presence or absence of various concentrations of mimetics. The inhibitory effects of mimetics on Fas-mediated cytotoxicity were consistent with the results of the FasL-binding inhibition (FIG. 4). […] A concentration of 1 mM Kp7-6 protected more than 90% cells from Fas-mediated cytotoxicity (FIG. 4). […] Large dose of Kp7-6 was used in this experiment for better signal-to-noise ratio. To determine if mimetics derived from other binding sites would potentially be able to interact synergistically to block the Kp7 surface, Kp7 was used in combination with mimetics.
Cytotoxicity assay. Twenty microliters of Jurkat cells at 1×10^5 cells/ml were plated in 96-well U-bottom plates. FasL-Flag (120 ng/ml in culture medium) was preincubated with equal volume of peptide sample in PBS for 1 h at 37° C., and 20 μl of mixture was added to each well. After an incubation period of 24 h, each culture was pulsed with 1 μCi of [^3H]-thymidine for 24 h before harvesting on glass fiber filters. Incorporation of the ^3H-thymidine obtained with culture medium alone and with 30 ng/ml of FasL was used as reference for 100% survival and 0% survival, respectively. Survival (%) by several doses of peptides was plotted. Incorporation of the radioactive label was measured by liquid scintillation counting (Wallac, Finland) and expressed as the arithmetic mean counts per minute (cpm) of triplicate cultures.

[2] = tested on: Con A-induced hepatitis model; experiment: Con A-induced hepatitis model, serum transaminase activity; format: in vivo, C57BL/6 mice; details: IP pretreatment 30 min before Con A iv
Experimental: The biological activity of mimetic Kp7-6 was measured in vivo. FasL induced apoptosis is one of the primary and dominant pathways by which liver cells undergo apoptosis under various conditions such as viral infection, drug toxicity and other lesions. (Kakinuma, C. et al. Toxicol Pathol 27, 412-420 (1999); Famularo, G., et al. Med Hypotheses 53, 50-62 (1999); Gantner et al. supra). […] (Zhang, H. et al. Nat Biotechnol 18, 862-867 (2000); Song, E. et al. Nat Med (2003)). The antagonistic effect of Kp7-6 in vivo was tested using the Con A-induced hepatitis model. C57BL/6 mice were pretreated intraperitoneally (IP) with anti-FasL monoclonal antibody, Fas mimetic peptides or saline. After 30 min, animals were challenged intravenously with Con A or saline. The induction of liver damage and inflammatory hepatitis was evaluated by measuring the serum activities of alanine aminotransferase (ALT) and aspartate aminotransferase (AST) 12 h after Con A treatment.
Administration of Con A and Measurement of Serum Transaminase Activity. […]
Blood samples were collected from mice at 12 h after Con A injection, and the serum was taken by centrifugation. Serum activities of alanine aminotransferase (ALT) and aspartate aminotransferase (AST) were measured by Lippi-Guidi's method (Iatrozyme TA-LQ: Dia-Iatron Inc., Tokyo, Japan). […]

FasL = molecular target: T1, FasL (Homo sapiens, UniProt P48023); experiment: Surface plasmon resonance (BIAcore) analysis, immobilized FasL-Flag; format: binding; details: FasL-Flag immobilized on sensor chip, 25° C.
T1 construct: Flag-tagged soluble human Fas ligand (FasL-Flag); purchased Kamiya Biomedical (Seattle, Wash.)
T1 sequence (P48023 130-281 limits assumed): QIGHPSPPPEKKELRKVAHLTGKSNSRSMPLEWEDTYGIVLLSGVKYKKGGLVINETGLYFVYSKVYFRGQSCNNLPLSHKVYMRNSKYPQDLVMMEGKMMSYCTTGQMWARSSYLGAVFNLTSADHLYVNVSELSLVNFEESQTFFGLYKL
Experimental: The kinetics of binding of Kp7-6, which mediated the best inhibitory activity to FasL, was performed using surface plasmon resonance (BIAcore™) analysis. […] The koff value is considered as an important indicator in the development of therapeutics with biological activity (Benveniste, M. et al. Br J Pharmacol 104, 207-221 (1991); Yiallouros, I. et al. Biochem J 331, 375-379 (1998)), and generally correlates with potent biological effects. (Moosmayer, D. et al. J Interferon Cytokine Res 16, 471-477 (1996)). […] (Berezov, A. et al. J Med Chem 44, 2565-2574 (2001)).
To assess the specificity of Kp7-6 binding interaction, Fas, FasL and TNFα were immobilized on a sensor chip. Kp7-6 bound to FasL but not to TNFα, which indicates Kp7-6 bound to FasL specifically (FIG. 3B). […] (Naismith, J. H. et al. Structure 4, 1251-1262 (1996)).
Biosensor analysis. All experiments were carried out on a BIAcore 3000 instrument (Biacore AG, Uppsala, Sweden) at 25° C. using PBS, pH 7.4, containing 0.005% surfactant P20 (Biacore AG) as the running buffer. FasL-Flag, Fas-Fc or TNFRI-Fc was immobilized on research-grade CM5 sensor chips (Biacore AG) using standard N-ethyl-N-dimethylaminopropyl carbodiimid/N-hydroxysuccinimide coupling. […] Data were analyzed with the BIA evaluation 3.0 software (Biacore AG). […]

YCDEQFCY (disulfide 2-7 (inferred)) [Kp7-10, exocyclic mimetic derived from Fas Kp7 loop]
synergy in combination with members of the Kp4 mimetics ([1]; Fas-mediated cytotoxicity, data not shown): Neither Kp7-6 nor Kp7-10 used in combination with members of the Kp4 mimetics showed any significant synergy
inhibition of Fas-mediated cytotoxicity [1]: dose-dependent inhibition

YCDEHGLCY (disulfide 2-8 (inferred)) [Kp7-7, exocyclic mimetic derived from Fas Kp7 loop]
block of Con A-induced hepatic injury [2]: protection of mice against Con A induced liver injury

N[C@@H](Cc1ccc(O)cc1)C(=O)N[C@H]1CSSC[C@@H](C(=O)N[C@@H](Cc2ccc(O)cc2)C(=O)O)NC(=O)[C@H](Cc2ccccc2)NC(=O)[C@H](Cc2c[nH]cn2)NC(=O)[C@H](CCC(=O)O)NC(=O)[C@H](CC(=O)O)NC1=O [Kp7-6, YCDEHFCY] (H-YCDEHFCY-OH; disulfide 2-7; N-terminus and C-terminus assumed)
cells protected from Fas-mediated cytotoxicity ([1]; 1 mM mimetic, Jurkat cells, FasL-Flag): more than 90%
inhibition of Fas-mediated cytotoxicity [1]: dose-dependent inhibitory activity
koff (FasL; read-out: koff rate constant): 0.000765 s⁻¹
kon (FasL; read-out: kon rate constant): 68.5 M⁻¹ s⁻¹

YCNSTVCY (disulfide 2-7 (inferred)) [Kp1-1, exocyclic mimetic derived from Fas Kp1 loop]
block of Con A-induced hepatic injury [2]: did not block the hepatic injury
